Reference: US10934253B2, “Therapeutic compounds and methods” (UNIVERSITY OF TASMANIA, priority 2017, dated 2021)

Test system: LHON model induced by intravitreal rotenone in C57BL/6 mouse
Test: Leber's hereditary optic neuropathy (LHON) mouse model, optomotor response
Assay type: in vivo
Conditions: rotenone in left eye, 200 mg/kg orally in food
Procedure: FIG. 5: Efficacy of representative compounds of Formula (I) in leber's hereditary optic neuropathy (LHON) mouse model. LHON induced by rotenone injection in the left eye (5 μM) in C57BL/6 mouse model (Refer to Heitz, F. D et al. (2012). PLoS One., 7(9), e45182). […] Representative compounds (UTA 37 and UTA 77) and idebenone administered at 200 mg/kg over the observation period.
LHON model was induced by intravitreal injection of rotenone into the left eye in C57BL/6 mouse model as described by Heitz et al. 2012. Representative compounds (UTA 37 and UTA 77) and idebenone administered at 200 mg/kg over the observation period. Vision loss was measured by assessing number of head turns.
C57BL/6 mice (male, 8-11 weeks of age, average body weight≈25 g) were used in accordance with the Australian code for the use of animals for scientific purposes and under the required animal ethics approval from the University of Tasmania (UTAS) Animal Ethics Committee (Approval number A0016080). Animals were given at least seven days to acclimatise to the animal facility to reduce stress induced by transportation before being used for behavioural testing. All mice were supplied orally with test compounds by mixing test compounds into individual daily food portions as described previously (Heitz, F. D. et al. (2012). PLoS One., 7(9), e45182). […]

How did the “Protection of visual acuity (head turns, optomotor response; in words)” value turn out when `COc1ccc(CCNC(=O)CCCC2=C(C)C(=O)c3ccccc3C2=O)cc1OC` [UTA #77, N-(3,4-dimethoxyphenethyl)-4-(3-methyl-1,4-naphthoquinone-2-yl)butanamide] was run?
Its value is “Statistically significant protection of visual acuity”.
